Results on two substances are retold here after ChEMBL document CHEMBL1157035, “Synthesis and biological evaluation of water-soluble organogermanium” (Eur J Med Chem, 2010).

Calls of active or inactive are those of the source. No cut-off for these calls is given here.

Common to all, as to type: functional, organism-based
Test [1] has as its system Mus musculus. The test can be described thus: Immunoregulatory activity in ICR mouse assessed as increase in serum IFN-gamma level at 100 mg/kg, po after 12 hrs by ELISA. On the set-up: dose 100 mg/kg. Background: In an ELISA, binding on a coated surface is turned into a signal by an enzyme label.
In test [2] the test system is Mus musculus. The test can be described thus: Immunoregulatory activity in ICR mouse assessed as increase in serum IFN-gamma level at 100 mg/kg, po after 12 to 24 hrs by ELISA. The arrangement: dose 100 mg/kg.
The test system of test [3] is Mus musculus. The test can be described thus: Immunoregulatory activity in ICR mouse assessed as increase in serum IFN-gamma level at 300 mg/kg, po after 24 hrs by ELISA. The arrangement: dose 300 mg/kg.
The test system of test [4] is Mus musculus. The test can be described thus: Immunoregulatory activity in po dosed ICR mouse assessed as increase in serum IFN-gamma level after 24 hrs by ELISA.
Test [5] relates to Mus musculus. The test can be described thus: Immunoregulatory activity in ICR mouse assessed as increase in serum IFN-gamma level at 100 mg/kg, po after 24 hrs by ELISA. The arrangement: dose 100 mg/kg.

For “6-O-[3-(trimethylgermyI)propyl]-beta-D-glucopyranoside”, the result with Mus musculus [1] was inactive. Besides, the result in the test with Mus musculus [2] was Active. In addition, the results for the Activity in the test on Mus musculus [3] and with Mus musculus [4] were 600 pg/mL and “Dose-dependent effect”, respectively.
GERMANIUM SESQUIOXIDE: the Activity in the test on Mus musculus [5] was determined as 320 pg/mL. Also, the outcome in the test on Mus musculus [1] was inactive. The result in the test with Mus musculus [2] was Active.
